Assay results from patent publication US20150158870A1, “POLYMORPHS OF 7-(TERT-BUTYL-D9)-3-(2,5-DIFLUOROPHENYL)-6-((1-METHYL-1H-1,2,4-TRIAZOL-5-YL)METHOXY)-[1,2,4]TRIAZOLO[4,3-B]PYRIDAZINE” (Concert Pharmaceuticals Inc., priority 2012, published 2015).

Columns and labels:
Assay type in all cases: physicochemical
[1] = Dynamic Vapor Sorption (DVS) analysis; details: for weight gained in DVS analysis: between 0-90% relative humidity, 25° C.
Method: Dynamic Vapor Sorption (DVS). DVS experiments were conducted on a Surface Measurement Systems DVS-HT at 25° C. The instrument was operated in step mode and the relative humidity was increased in 10% RH increments from 40% RH to 90% RH, then decreased from 90% RH to 0% RH, then increased from 0% RH to 90% RH, then decreased from 90% RH to 0% RH. An extra step at 75% RH was included in each cycle. The mass equilibrium criterion was set at 0.005% change in mass over time (dm/dt) prior to each humidity level. A minimum step time of 10 minutes and a maximum step time of 240 minutes were specified.

[2] = Physical (crystal form) stability on exposure to ambient conditions, relative humidity or elevated pressure; details: for crystal form change on exposure to 97% relative humidity: 97% relative humidity for 5 days; for crystal form change on exposure to 75% relative humidity: 75% relative humidity for five days
Text: (§1) Form 1 is a non-solvated, non-hygroscopic crystal.
Form 3 is a non-solvated and non-hygroscopic crystal.
Form 4 is a non-solvated crystal.

[3] = Milling at -196° C. and recrystallization
Text: as §1

[4] = Stability of Form 1 to physical and chemical manipulation (Example 3)
Method: Form 1 is stable to lyophilization when initially dissolved in a 50:50 mixture of DMC:ACN.
A saturated solution of Form 1 in any of MeOH, ACN, acetone, DCM, TFE, or 1,4-dioxane is stable to evaporation over 3.5 hours at 30° C. under reduced pressure.
A saturated solution of Form 1 in any of MeOH, THF, MeOAc, Toluene, or EtOH in 1 vol % Heptane is stable after heating to 50° C., filtering the solution and rapidly cooling to 5° C.
A suspension of Form 1 in any of DMSO, n-BuOH, 2-Methoxyethanol, IPA, EtOH, Nitromethane, DMC, n-PrOH, ACN, Acetone, 2-Butanone, EtOAc, THF, EtOH in 5 vol % Toluene, MeOAc, or EtOH in 5 vol % MeOH is stable after cycling temperature between 5 and 40° C. for >48 hrs with constant stirring.
Form 1 was also stable to exposure to 75% relative humidity or to high pressure (10 kPSi).
A saturated solution of Form 1 in any of n-PrOH, ACN, Acetone, 2-Butanone, EtOAc, THF, EtOH in 5 vol % Toluene, MeOAc, or EtOH in 5 vol % MeOH at 25° C., is stable after filtering the solution and then cooling the solution to 5° C. at a rate of 1° C./min.
A saturated solution of Form 1 in any of TFE, 2-Methoxyethanol, IPA, EtOH, Heptane, 4-Methyl-2-pentanone, cyclohexane, ACN, Acetone, 2-Butanone, EtOAc, THF, or EtOH in 5 vol % Toluene is stable to evaporation over 2-28 days under ambient conditions.

Structure (SMILES)	hygroscopicity of the crystal [1]	weight gained in DVS analysis [1] [% wt]	crystal form change on exposure to 97% relative humidity [2]	time physically stable at ambient conditions ([2]; ambient conditions)	crystal form change on exposure to 75% relative humidity [2]	physical stability at ambient conditions ([2]; ambient conditions, no duration stated)	crystal form change on exposure to elevated pressures ([2]; elevated pressures (~0.35 GPa) for 3 days)	time to recrystallize back to Form 1 after milling ([3]; after becoming amorphous by milling at -196° C. for 2.5 hours) [min]	solid form after milling ([3]; milled at -196° C. for 2.5 hours)	crystal form stability to exposure to water vapor ([4]; 75% relative humidity)	crystal form stability to pressing ([4]; high pressure (10 kPSi))	crystal form stability to lyophilization ([4]; initially dissolved in a 50:50 mixture of DMC:ACN)	crystal form stability to controlled cooling ([4]; saturated solution at 25° C. in any of n-PrOH, ACN, Acetone, 2-Butanone, EtOAc, THF, EtOH in 5 vol % Toluene, MeOAc, EtOH in 5 vol % MeOH, filtered, cooled to 5° C. at 1° C./min)	crystal form stability to fast evaporation ([4]; saturated solution in any of MeOH, ACN, acetone, DCM, TFE or 1,4-dioxane, evaporation over 3.5 hours at 30° C. under reduced pressure)	crystal form stability to rapid cooling ([4]; saturated solution in any of MeOH, THF, MeOAc, Toluene or EtOH in 1 vol % Heptane, heated to 50° C., filtered, rapidly cooled to 5° C.)	crystal form stability to slow evaporation ([4]; saturated solution in any of TFE, 2-Methoxyethanol, IPA, EtOH, Heptane, 4-Methyl-2-pentanone, cyclohexane, ACN, Acetone, 2-Butanone, EtOAc, THF, EtOH in 5 vol % Toluene, evaporation over 2-28 days under ambient conditions)	crystal form stability to slurry equilibration ([4]; suspension in any of DMSO, n-BuOH, 2-Methoxyethanol, IPA, EtOH, Nitromethane, DMC, n-PrOH, ACN, Acetone, 2-Butanone, EtOAc, THF, EtOH in 5 vol % Toluene, MeOAc, EtOH in 5 vol % MeOH, cycling 5-40° C. for >48 hrs with stirring)
[2H]C([2H])([2H])C(c1cc2nnc(-c3cc(F)ccc3F)n2nc1OCc1ncnn1C)(C([2H])([2H])[2H])C([2H])([2H])[2H] [Form 3, 7-(tert-Butyl-d9)-3-(2,5-difluorophenyl)-6-((1-methyl-1H-1,2,4-triazol-5-yl)methoxy)-[1,2,4]triazolo[4,3-b]pyridazine]	non-hygroscopic	< 0.25	does not undergo a crystal form change	at least 2 weeks													
[2H]C([2H])([2H])C(c1cc2nnc(-c3cc(F)ccc3F)n2nc1OCc1ncnn1C)(C([2H])([2H])[2H])C([2H])([2H])[2H] [Form 1, 7-(tert-Butyl-d9)-3-(2,5-difluorophenyl)-6-((1-methyl-1H-1,2,4-triazol-5-yl)methoxy)-[1,2,4]triazolo[4,3-b]pyridazine]	non-hygroscopic	< 0.25	partially converts to Form 2		does not undergo a crystal form change	physically stable	does not undergo a crystal form change	≤ 30	becomes amorphous	stable	stable	stable	stable	stable	stable	stable	stable
[2H]C([2H])([2H])C(c1cc2nnc(-c3cc(F)ccc3F)n2nc1OCc1ncnn1C)(C([2H])([2H])[2H])C([2H])([2H])[2H] [Form 4, 7-(tert-Butyl-d9)-3-(2,5-difluorophenyl)-6-((1-methyl-1H-1,2,4-triazol-5-yl)methoxy)-[1,2,4]triazolo[4,3-b]pyridazine]				at least 2 weeks	does not undergo a crystal form change												
